According to patent publication EP4089103A1, “CLPCP PROTEASE-BINDING CYCLIC HEPTAPEPTIDES” (priority 2021, dated 2022):

What was measured:
[1] = system: BRDTBD1 expressed in M. smegmatis cells; assay: In vivo degradation assay in live mycobacteria, capillary western (Wes); format: cell-based, M. smegmatis mc^2-155; details: 100 µM, 10 µM or 1 µM BacPROTAC-3, 100 µM sCym-1 or 100 µM JQ1; 2 hours incubation; Figure 3
Description: After validating the activity of the compound Cym_bacPROTAC_3 in vitro, the compound was investigated in an in vivo degradation assay in a cellular environment. For the in vivo degradation assay Msm cells stably expressing BRDTBD1 were used. The culture was treated with the compound Cym_bacPROTAC_3 or alternatively, the individual building blocks sCym-1 and JQ1. After two hours incubation, BRDTBD1 levels were quantified using capillary western as detailed below.
A stationary culture of M. smegmatis mc^2-155 carrying a plasmid BRDTBD1 expression was diluted 1:200 in 50 mL 7H9 medium supplemented with 50 µg/mL hygromycin. The culture was grown at 37 °C with vigorous shaking to an OD600 of ∼1. Expression of BRDTBD1 was then induced by addition of 200 µL 50% acetamide in H2O. […]
The amounts of BRDTBD1 in the lysates were quantified using Wes (ProteinSimple), a capillary electrophoresis-based western blot technology. Bacterial lysates were diluted 2-fold and analysed using the 12-230 kDa Wes Separation Module (Protein simple, SM-W004) following the manufacturer's instructions. […] BRDTBD1 was detected using the Anti-Rabbit Detection Module for Wes (ProteinSimple, DM-001), which includes a peroxidase-conjugated secondary antibody and a chemiluminescent substrate. Results were analysed using the Compass for SW software (ProteinSimple). […]

[2] = system: mycobacterial proteome (2912 proteins) incl. BRDTBD1; assay: Selectivity of protein degradation, TMT mass spectrometric analysis of Msm lysates; format: cell-based, M. smegmatis; details: TMT MS, triplicate analysis, Figure 4
Description: To address this point, a tandem mass tag (TMT) mass spectrometric (MS) analysis of Msm lysates was performed.
Thus, the TMT MS analysis provides compelling evidence that the compound Cym_bacPROTAC_3 is capable of inducing degradation of the BRDTBD1 substrate in a highly specific and efficient manner.

## Cc1sc2c(c1C)C(c1ccc(Cl)cc1)=N[C@@H](CC(=O)OC(C)(C)C)c1nnc(C)n1-2 [JQ1]
[1]
  BRDTBD1 levels after treatment: did not affect BRDTBD1 levels
[2]
  change in protein abundance versus vehicle (DMSO): did not affect BRDTBD1 levels and did also not cause global effects
